Where “and” joins values, the source holds several entries; their conditions need not be identical. Equal values may be shown once.
Tests used:
[1] = cited from earlier work
[2] = Oxytocin in CSF from the cisterna magna after administration, EIA; type: in vivo, mouse; conditions: for CSF OT: individual animals, listed as OT
Experimental: CSF was collected according to the protocol for sampling CSF from mice without detectable plasma contamination[77],[78]. Under ketamine anaesthesia (100 mg/kg intraperitoneally), the occipital skull was exposed, and the dura mater of the cisterna magna appeared as a glistening and clear reverse triangle through which the medulla oblongata, a major blood vessel (arteria dorsalis spinalis), and CSF space were visible. A capillary tube was inserted into the cisterna magna through the dura mater, blood-free CSF samples were collected with a 32G needle and immediately frozen with dry ice prior to storage at −80 °C. After CSF collections, blood samples were obtained by cardiac puncture from the mice under continuous ketamine anaesthesia.
The CSF samples (5 μl) were thawed and diluted 1:20 in assay buffer. CSF samples were assayed without protein extraction due to the low protein concentration in the CSF. […] The inter-assay and intra-assay coefficients of variation were less than 15%.

[3] = human or primate CSF, mammalian hippocampus and amygdala; cited from earlier work
[4] = Oxytocin in CSF after transient brain ischaemia (BCCAO) or sham operation; type: in vivo, mouse; conditions: individual animals, listed as OT

In the case of `CC[C@H](C)[C@@H]1NC(=O)[C@H](Cc2ccc(O)cc2)NC(=O)[C@@H](N)CSSC[C@@H](C(=O)N2CCC[C@H]2C(=O)N[C@@H](CC(C)C)C(=O)NCC(N)=O)NC(=O)[C@H](CC(N)=O)NC(=O)[C@H](CCC(N)=O)NC1=O` [oxytocin, Oxytocin], the “share of peripherally applied oxytocin that reaches the CNS” value ([1]; 5 μg, 10 min after subcutaneous or intraperitoneal administration, rats) is listed as “approximately 0.002%”, the bioavailability ([1]; LC/MS after administration of 500 μg oxytocin in rats) is listed as “approximately 2%” and the “share of oxytocin peptide accumulated on the BBB” value ([1]; intracarotid artery bolus of 125I- or 3H-labelled oxytocin, rats) is listed as 1–2%. The “CSF OT” value ([2]; KO (Ager-/-) mice, 60 min after sc oxytocin) was 1.096% and 1.022% and 1.298% and 0.875% and 0.8155% and 0.9128% and 1.16% and 0.679% and 1.176% and 1.081% and 0.9794% and 0.8625%, the “CSF OT” value ([2]; KO+Tg mice, 60 min after sc oxytocin) was 1.051% and 1.1275% and 0.9794% and 1.244% and 1.354% and 2.625% and the “CSF OT” value ([2]; WT+Tg (endothelial human RAGE) mice, 60 min after sc oxytocin) was 1.066% and 1.83% and 1.926% and 1.872%. For the same molecule, the “CSF OT” value ([2]; female Ager-/- mice, 60 min after sc OT) was 110.13% and 105.01% and 103.76% and 85.23% and 99.81% and 68.15%, the “CSF OT” value ([2]; female WT mice, 60 min after sc OT) was 169.21% and 199.15% and 65.08% and 204.46% and 219.88% and 175.37% and 233.36% and 183.92% and 188.35% and the “oxytocin concentrations in the CSF of Ager-/- mice after injection” value ([2]; sc 30 ng/mouse, Ager-/- mice) was “remained at baseline levels”. For the same molecule, the “time of maxima of oxytocin in CSF from the cisterna magna” value ([2]; sc 30 ng/mouse, WT mice) was 1 to 2 h, the “time of return of CSF oxytocin to baseline” value ([2]; sc 30 ng/mouse, WT mice) was 4 h and the “time of maximal oxytocin concentrations after peripheral administration” value [3] was 10 to 60 min. The “CSF OT” value ([4]; Ager-/- BCCAO male mice) was 121.746% and 129.498% and 127.909% and 71.8544% and 61.8033% and 79.0857% and 110.296% and 99.9236% and 126.34%, the “CSF OT” value ([4]; Ager-/- Sham male mice) was 71.8544% and 61.8033% and 67.0976% and 118.777% and 117.319% and 98.6976% and the “CSF OT” value ([4]; WT BCCAO male mice) was 191.756% and 287.616% and 179.547% and 244.561% and 258.145%. The “CSF OT” value ([4]; WT Sham male mice, cisterna magna, after exogenous oxytocin) was 155.233% and 188.051% and 122.984% and 133.451%.
